The values that follow come from patent publication US9260481B2, “Peptide derivatives as antibiotics” (priority 2011, dated 2016).

In brackets after ≈: the same amount, converted by molar mass. Where two headings read alike, the source gives them in different places. Marks after values point to notes of the source that are not given here. Numbered stars: 1 amine (or outer) side, 2 acyl side, 3 side chain; on linkers, the order of the positions; unused ones are H or OH. Square brackets hold non-standard residues; d marks the D form. Peptide text beside a SMILES is read from it. * marks the point of attachment. ξ: configuration not given here. X1 = NCC(O)CCC(N[*:1])C(=O)[*:2]; ΔZArg = N=C(N)NCC/C=C(\N)C(=O)O; ξDab(3-OH) = NCC(O)C(N)C(=O)O; Orn = NCCC[CH](N)C(=O)O; NH(CH2)4NH2 = NCCCCN* Some results are limits rather than exact numbers.

The test system of one series is P. aeruginosa ATCC 27853. The class given is cell-based, Pseudomonas aeruginosa. Conditions: ATCC 27853, 24 h. The procedure: (§1) Minimal bactericidal concentrations (MBCs) were established by extending the MIC procedure to the evaluation of bactericidal activity. After 24 hours, 10 μL were drawn from the wells, serially diluted and then spotted onto suitable agar plates. The plates were incubated at 37° C. overnight. […] All the experiments were done in triplicate.

The next series can be described thus: Cytotoxicity test (MTS). The class given is cell-based. The conditions noted are these: human; for CC50 at 72 h: MTS; for viability at 72 h: dose of up to 100 μg/mL, read-out: cell viability. Here is the method: The cytotoxicity of the Odilomycins A-C was investigated against Human colon adenocarcinoma (HT29) cells and Human normal lung fibroblasts (MRC-5) cells. 200 μL of the cell suspension of HT29 (human colorectal adenocarcinoma) prepared in RPMI 1640+1% L-Glutamine supplemented with 10% (v/v) fetal calf serum and 200 μL of the cell suspension of MRC5 (human lung fibroblast) prepared in Dulbecco's modified Eagle's medium supplemented with 25 mM glucose and 10% (v/v) fetal calf serum were inoculated into 96-well plates.
The inoculating cell number was 800 cells per well for HT29 and 2100 cells per well for MRC-5. The microplates were incubated at 37° C. for 24 h with 5% of CO2.
Twenty four hours later, Odilomycin A, B or C dissolved in water were added for 72 h at a final concentration from 0.78 μg/mL to 100 μg/mL in a fixed volume of water (1% final concentration). […] Experiments were done in triplicate.

The test system of a further series is S. aureus ATCC 13709. The class given is cell-based, Staphylococcus aureus. Conditions: ATCC 13709, 24 h. Here is the method:
as §1

For the next series, the system named is Pseudomonas aeruginosa. Here is the method:
(§2) The minimal inhibitory concentrations (MIC) were determined according to the Clinical and Laboratory Standards Institute (CLSI) conditions guidelines detailed in Table 7. Assays were performed in triplicate.
(§3) Preparation of Inocula. Five to 10 well-isolated colonies were picked and resuspended in 3 ml sterile saline. The inoculum was re-suspended by vigorous shaking on a vortex mixer for 15 s. Turbidity was adjusted to McFarland standard 0.5 ([…]). The inoculum was further diluted in the appropriate media (Table 7) to give a final inoculum in each well of ˜2-8×10^5 CFU/ml.
(§4) Addition of Test Article. Stock solutions of Odilomycin A or comparator were diluted in the appropriate media to give a maximum starting concentration of 50 μg/mL in the assay. 50 μL of medium was dispensed into each well in columns two to 12 of a 96 well plate. 100 μL of the appropriate test compound solution (100 μg/mL) was dispensed into each well in column one. In the case of M. catarrhalis, M. haemolytica and P. multocida these values were doubled (a final assay volume of 200 μL was used). […] Columns 11 and 12 served as positive (no drug or test article, inoculum added), and negative (no drug, test article, or inoculum added) growth controls respectively.
(§5) Addition of Bacterial Strains. 50 μL of each inoculum suspension was added to the appropriate wells, resulting in a final volume of 100 μL consisting of 50 μL diluted compound or diluents, and 50 μL of inoculum or broth alone.

In another series the test system is Bacteroides fragilis. The series is described as follows: microbe, parasite or virus in culture. The conditions noted are these: Bacteroides fragilis, ATCC25238. Here is the method:
as §2, §3, §4, §5

The next series deals with Escherichia coli. The procedure: as §2, §3, §4, §5
The next series concerns Enterobacter cloacae. The conditions noted are these: E. cloacae clinical isolate 11370. Here is the method: as §2, §3, §4, §5
The next series deals with Klebsiella oxytoca. The conditions noted are these: K. oxytoca clinical isolate NEB9. The procedure:
as §2, §3, §4, §5

The next series concerns Klebsiella pneumoniae. Here is the method:
as §2, §3, §4, §5

Where [1] appears, read: HT29 colon adenocarcinoma cells.
Setting [2] is: MRC-5 normal lung fibroblasts, MRC-5 cells.

One may read the MBC as the lowest tested concentration that kills the bacteria rather than only halting them. A lower MBC goes with more potent killing. Usually CC50 stands for the concentration giving 50% cytotoxicity. Low readings indicate harm at low concentration, high ones better tolerance by the cells. The viability is a read-out of living cells in per cent, often relative to untreated cells.

Regarding `N=C(N)NCC/C=C(\NC(=O)C(CCCCN)NC(=O)C(Cc1cnc[nH]1)NC(=O)C1CCCN1C(=O)C(CCCN)NC(=O)CNC(=O)C(NC(=O)C(NC(=O)C(N)CCCCN)C(O)CN)C(O)CN)C(=O)NC(CCC(O)CN)C(=O)NCCCCN` (stereo not drawn) [Odilomycin B, Lys-(3-hydroxy-2,4-diaminobutanoic acid)-(3-hydroxy-2,4-diaminobutanoic acid)-Gly-Ornithine-Pro-His-Lys-(2,3-dehydroarginine)-(5-hydroxylysine)-(1,4-diaminobutane)] (H-K[ξDab(3-OH)][ξDab(3-OH)]G[Orn]PHK[ΔZArg][X1]-{NH(CH2)4NH2}; configuration not given here), the minimum bactericidal concentration (MBC) worked out at 3.12 µg/mL (≈ 2.44 µM) against P. aeruginosa ATCC 27853 and 0.78 µg/mL (≈ 0.609 µM) with S. aureus ATCC 13709. In addition, the CC50 at 72 h in “Cytotoxicity test (MTS)” (setting [1]) and in the series “Cytotoxicity test (MTS)” (setting [2]) was > 100 µg/mL throughout. The viability at 72 h in the series “Cytotoxicity test (MTS)” (setting [1]) and in the series “Cytotoxicity test (MTS)” (setting [2]) was 100% each time.

As to `N=C(N)NCC/C=C(\NC(=O)C(CCCCN)NC(=O)C(Cc1cnc[nH]1)NC(=O)C1CCCN1C(=O)C(CCCN)NC(=O)CNC(=O)C(NC(=O)C(NC(=O)C(N)CCCCN)C(O)CN)C(O)CN)C(=O)NC(CCCCN)C(=O)NCCCCN` (stereo not drawn) [Odilomycin C, Lys-(3-hydroxy-2,4-diaminobutanoic acid)-(3-hydroxy-2,4-diaminobutanoic acid)-Gly-Ornithine-Pro-His-Lys-(2,3-dehydroarginine)-Lys-(1,4-diaminobutane)] (H-K[ξDab(3-OH)][ξDab(3-OH)]G[Orn]PHK[ΔZArg]K-{NH(CH2)4NH2}; configuration not given here), the figures for the minimal bactericidal concentration (MBC) in the series with P. aeruginosa ATCC 27853 and in the series with S. aureus ATCC 13709 were 12.5 µg/mL (≈ 9.88 µM) and 1.56 µg/mL (≈ 1.23 µM), respectively. This compound came in with an MIC against Pseudomonas aeruginosa of 6.25 µg/mL (≈ 4.94 µM). For the same compound, the CC50 at 72 h in the series “Cytotoxicity test (MTS)” (setting [1]) and in the series “Cytotoxicity test (MTS)” (setting [2]) was > 100 µg/mL in each case. Also, the viability at 72 h in “Cytotoxicity test (MTS)” (setting [1]) and in the series “Cytotoxicity test (MTS)” (setting [2]) was 100% in each case.

`Cc1ncc([N+](=O)[O-])n1CCO` [metronidazole, reference compound]: in the series on Bacteroides fragilis, the MIC came to 0.39 µg/mL (≈ 2.28 µM).

As to polymyxin [reference compound], the MIC against Pseudomonas aeruginosa (P. aeruginosa ATCC 27853) was 0.39^c μg/mL; against Escherichia coli (E. coli ATCC 25922), 0.39^c μg/mL; in the series on Escherichia coli (E. coli CTX-M14 clinical isolate AEC7), 0.39^c μg/mL; in the series on Escherichia coli (E. coli CTX-M15 clinical isolate MEC23), 0.39^c μg/mL; with Escherichia coli (E. coli TEM clinical isolate MEC12), 0.39^c μg/mL; in the series with Enterobacter cloacae, 0.78^c μg/mL. In addition, the MIC against Klebsiella oxytoca is on record as 0.39^c μg/mL; with Klebsiella pneumoniae (K. pneumoniae ATCC 43816), 0.39^c μg/mL; in the series on Klebsiella pneumoniae (K. pneumoniae KPC clinical isolate 2475) it was 0.78^c μg/mL.
